According to patent publication US8946478B2, “Benzamide derivative with anticancer activity and preparation method and use thereof” (Zhejiang Hisun Pharmaceutical Co., Ltd., priority 2010, dated 2015):

Assays:
18 tumor cell strains = test: In vitro efficacy screening, summary over the tumor cell strains; type: cell-based, human
[1] = test system: human ovarian cancer cell strain HO8910; test: In vitro SRB tumor cell growth inhibition (GI50); type: cell-based; conditions: HO-8910, HO8910 cells, 48 h
[2] = test system: human ovarian cancer cell strain OVCAR-8; test: In vitro SRB tumor cell growth inhibition (GI50); type: cell-based; conditions: Homo sapiens, OVCAR-8, 48 h, OVCAR-8 cells
[3] = test system: human prostate cancer DU145; test: In vitro SRB tumor cell growth inhibition (GI50); type: cell-based; conditions: Homo sapiens, DU-145, 48 h, DU145 cells
[4] = test system: human lung cancer cell strain NCI-460; test: In vitro SRB tumor cell growth inhibition (GI50); type: cell-based; conditions: Homo sapiens, NCI-460, 48 h, NCI-460 cells
Summary of the method: (§1)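 A549 and PANC-1 seeded at 10000 cells/well, OVCAR-5 and NCI460 at 5000 cells/well in DMEM/10% FBS, pre-incubated 24 h at 37 °C. Compounds added for 48 h, triplicate; cells TCA-fixed, SRB-stained, absorbance read at 515 nm with 690 nm blank. GI50 from dose-response curve, time-zero wells included.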

[5] = test system: human breast cancer cell strain MDA-MB435; test: In vitro SRB tumor cell growth inhibition (GI50); type: cell-based; conditions: Homo sapiens, MDA-MB-435, 48 h, MDA-MB435 cells
[6] = test system: human breast cancer cell strain MCF-7; test: In vitro SRB tumor cell growth inhibition (GI50); type: cell-based; conditions: Homo sapiens, MCF7, 48 h, MCF-7 cells
[7] = test system: human pancreatic cancer PANC-1; test: In vitro SRB tumor cell growth inhibition (GI50); type: cell-based; conditions: Homo sapiens, PANC-1, 48 h, PANC-1 cells
Summary of the method: as §1

[8] = test system: human lung cancer cell strain 95D; test: In vitro SRB tumor cell growth inhibition (GI50); type: cell-based; conditions: Homo sapiens, 95-D, 48 h, 95D cells
[9] = test system: human ovarian cancer cell strain OVCAR-5; test: In vitro SRB tumor cell growth inhibition (GI50); type: cell-based; conditions: OVCAR-5 cells, 48 h
Summary of the method: as §1

[10] = test system: human colon cancer cell strain HCT-116; test: In vitro SRB tumor cell growth inhibition (GI50); type: cell-based; conditions: Homo sapiens, HCT-116, 48 h, HCT-116 cells
[11] = test system: human ovarian cancer cell strain SKOV-3; test: In vitro SRB tumor cell growth inhibition (GI50); type: cell-based; conditions: SK-OV-3, SKOV-3 cells, 48 h
[12] = test system: human uterine cancer Hela; test: In vitro SRB tumor cell growth inhibition (GI50); type: cell-based; conditions: Homo sapiens, HeLa, 48 h, Hela cells
human hepatoma HepG 2 = test: In vitro SRB tumor cell growth inhibition (GI50); type: cell-based; conditions: HepG2, HepG 2 cells, 48 h
human leukemia K562 = test: In vitro SRB tumor cell growth inhibition (GI50); type: cell-based; conditions: Homo sapiens, K562, 48 h, K562 cells
human leukemia HL-60 = test: In vitro SRB tumor cell growth inhibition (GI50); type: cell-based; conditions: Homo sapiens, HL-60, 48 h, HL-60 cells
[13] = test system: human lung cancer cell strain A549; test: In vitro SRB tumor cell growth inhibition (GI50); type: cell-based; conditions: A549 cells, 48 h
Summary of the method: as §1

[14] = test system: human prostate cancer BXPC-3; test: In vitro SRB tumor cell growth inhibition (GI50); type: cell-based; conditions: BXPC-3 cells, 48 h
[15] = test system: human colon cancer cell strain Colo205; test: In vitro SRB tumor cell growth inhibition (GI50); type: cell-based; conditions: Colo 205 cells, 48 h

SMILES | efficacy relative to the positive drug BSI-201 (18 tumor cell strains; in the measured 18 tumor cell strains) [times] | inhibitory effects on tumor cell proliferation (in words) (18 tumor cell strains; in vitro screening, BSI-201 as positive drug) | GI50 [1] [µM] | GI50 [2] [µM] | GI50 [3] [µM] | GI50 [4] [µM] | GI50 [5] [µM] | GI50 [6] [µM] | GI50 [7] [µM] | GI50 [8] [µM] | GI50 [9] [µM] | GI50 [10] [µM] | GI50 [11] [µM] | GI50 [12] [µM] | GI50 (human hepatoma HepG 2) [µM] | GI50 (human leukemia K562) [µM] | GI50 (human leukemia HL-60) [µM] | GI50 [13] [µM] | GI50 [14] [µM] | GI50 [15] [µM]
C#Cc1ccc(C(N)=O)cc1[N+](=O)[O-] [Compound I-1, 4-ethynyl-3-nitrobenzamide] | 10 | have inhibitory effects on tumor cell proliferation | 1.47 | 11.7 | 4.78 | 10.9 | 2.05 | 2.47 | 7.41 | 1.88 | 4.29 | 1.9 | 3.17 | 5.28 | 8.73 | 3.02 | 2.11 | 4.56 | 4.68 | 4.84
NC(=O)c1ccc(I)c([N+](=O)[O-])c1 [BSI-201, 4-iodo-3-nitrobenzamide, reference compound] | – | – | 72.6 | 103 | 86.6 | > 100 | 64.4 | 40.1 | 25.5 | 53.8 | 61.1 | 64.7 | 38.5 | 64.7 | > 100 | 44.6 | 74.1 | 105 | 105 | 76
